Measured values as given in patent US8258114B2, “Modulation of glucose-6-phosphatase translocase expression” (Isis Pharmaceuticals, Inc., priority 2004, dated 2012).
Oligonucleotides are written 5' to 3', each unit as a sugar letter and its base; * is a phosphorothioate linkage, no mark a phosphodiester; rarer units and linkages stand in square brackets, end groups in braces. Plain capitals give the bases only. e = 2'-O-(2-methoxyethyl) (MOE); [5mC] = 5-methylcytosine; d = 2'-deoxy (DNA)

System: mouse glucose-6-phosphatase translocase mRNA
Assay: Antisense inhibition of mouse glucose-6-phosphatase translocase mRNA in primary mouse hepatocytes, 150 nM, LIPOFECTIN (Table 22)
Format: cell-based
Conditions: real-time PCR
Procedure: Primary mouse hepatocytes were prepared from CD-1 mice purchased from Charles River Labs. Primary mouse hepatocytes were routinely cultured in Hepatocyte Attachment Media supplemented with 10% fetal bovine serum (Invitrogen Life Technologies, Carlsbad, Calif.), 250 nM dexamethasone, and 10 nM bovine insulin (Sigma-Aldrich, St. Louis, Mo.). Cells were seeded into 96-well plates (Falcon-Primaria #353872, BD Biosciences, Bedford, Mass.) at a density of approximately 4,000-6,000 cells/well for use in oligomeric compound transfection experiments.
When cells reached 65-75% confluency, they were treated with oligonucleotide. Oligonucleotide was mixed with LIPOFECTIN™ Invitrogen Life Technologies, Carlsbad, Calif.) in Opti-MEM™-1 reduced serum medium (Invitrogen Life Technologies, Carlsbad, Calif.) to achieve the desired concentration of oligonucleotide and a LIPOFECTIN™ concentration of 2.5 or 3 μg/mL per 100 nM oligonucleotide. This transfection mixture was incubated at room temperature for approximately 0.5 hours. For cells grown in 96-well plates, wells were washed once with 100 μL OPTI-MEM™-1 and then treated with 130 μL of the transfection mixture. Cells grown in 24-well plates or other standard tissue culture plates are treated similarly, using appropriate volumes of medium and oligonucleotide. Cells are treated and data are obtained in duplicate or triplicate. After approximately 4-7 hours of treatment at 37° C., the medium containing the transfection mixture was replaced with fresh culture medium. Cells were harvested 16-24 hours after oligonucleotide treatment.
Quantitation of glucose 6-phosphatase translocase mRNA levels was accomplished by real-time quantitative PCR using the ABI PRISM™ 7600, 7700, or 7900 Sequence Detection System (PE-Applied Biosystems, Foster City, Calif.) according to manufacturer's instructions.
Prior to quantitative PCR analysis, primer-probe sets specific to the target gene being measured were evaluated for their ability to be “multiplexed” with a GAPDH amplification reaction. After isolation the RNA is subjected to sequential reverse transcriptase (RT) reaction and real-time PCR, both of which are performed in the same well. RT and PCR reagents were obtained from Invitrogen Life Technologies (Carlsbad, Calif.). […] The RT reaction was carried out by incubation for 30 minutes at 48° C. Following a 10 minute incubation at 95° C. to activate the PLATINUM® Taq, 40 cycles of a two-step PCR protocol were carried out: 95° C. for 15 seconds (denaturation) followed by 60° C. for 1.5 minutes (annealing/extension).
Gene target quantities obtained by RT, real-time PCR were normalized using either the expression level of GAPDH, a gene whose expression is constant, or by quantifying total RNA using RiboGreen™ (Molecular Probes, Inc. Eugene, Oreg.). GAPDH expression was quantified by RT, real-time PCR, by being run simultaneously with the target, multiplexing, or separately. Total RNA was quantified using RiboGreen™ RNA quantification reagent (Molecular Probes, Inc. Eugene, Oreg.).
A series of oligomeric compounds was designed to target different regions of mouse glucose-6-phosphatase translocase, using published sequences cited in Table 1. All compounds in Table 22 are chimeric oligonucleotides (“gapmers”) 20 nucleotides in length, composed of a central “gap” region consisting of 10 2′-deoxynucleotides, which is flanked on both sides (5′ and 3′) by five-nucleotide “wings”. The wings are composed of 2′-O-(2-methoxyethyl) nucleotides, also known as 2′-MOE nucleotides. The internucleoside (backbone) linkages are phosphorothioate throughout the oligonucleotide. All cytidine residues are 5-methylcytidines. The compounds were analyzed for their effect on gene target mRNA levels by quantitative real-time PCR as described in other examples herein, using the following primer-probe set designed to hybridize to mouse glucose-6-phosphatase translocase: • forward primer: […]

Substance	% Inhib of mouse glucose-6-phosphatase translocase mRNA levels
145691 (antisense eT*eG*eT*e[5mC]*eT*dG*dA*d[5mC]*dA*dG*dG*dT*dA*dA*d[5mC]*e[5mC]*eA*eG*e[5mC]*eT) [compound 145691]	30%
145692 (antisense eG*e[5mC]*eT*eG*e[5mC]*d[5mC]*dA*dT*d[5mC]*d[5mC]*d[5mC]*dA*dG*d[5mC]*d[5mC]*eA*eT*e[5mC]*eA*eT) [compound 145692]	65%
145693 (eG*eG*eA*eA*eG*dA*dG*dA*dT*dA*d[5mC]*dG*dT*dG*dG*eA*eT*eG*e[5mC]*eT; antisense) [compound 145693]	0%
145694 (eA*eG*eT*e[5mC]*eA*d[5mC]*dT*dG*dG*dT*d[5mC]*dA*d[5mC]*d[5mC]*dG*eT*eT*eA*e[5mC]*eT; antisense) [compound 145694]	23%
145695 (e[5mC]*eA*eA*eT*eG*dG*dG*dA*d[5mC]*d[5mC]*dA*dT*dA*dA*dG*eA*eA*eG*eA*eG; antisense) [compound 145695]	24%
145696 (e[5mC]*eT*e[5mC]*e[5mC]*eA*dA*dA*d[5mC]*dA*dA*dG*dG*d[5mC]*dA*dA*eT*eG*eG*eG*eA; antisense) [compound 145696]	37%
145697 (eT*eG*eG*e[5mC]*eT*dA*dT*dG*dA*d[5mC]*dT*d[5mC]*d[5mC]*dA*dA*eA*e[5mC]*eA*eA*eG; antisense) [compound 145697]	45%
145698 (e[5mC]*e[5mC]*eA*e[5mC]*eA*dA*dT*dA*dG*d[5mC]*dA*dT*dG*dA*dG*eA*eG*eG*eT*eT; antisense) [compound 145698]	33%
145699 (eT*e[5mC]*e[5mC]*eA*e[5mC]*d[5mC]*d[5mC]*dA*d[5mC]*dA*dT*dT*dG*dG*d[5mC]*e[5mC]*eA*eT*eA*eA; antisense) [compound 145699]	41%
145701 (eA*eG*eT*eG*e[5mC]*dT*dT*dG*dG*d[5mC]*dA*dA*dT*dG*dG*eT*eG*e[5mC]*eT*eG; antisense) [compound 145701]	54%
145703 (eA*e[5mC]*e[5mC]*eA*e[5mC]*dT*dT*d[5mC]*dT*dG*d[5mC]*d[5mC]*dA*d[5mC]*d[5mC]*e[5mC]*eA*eG*eA*eA; antisense) [compound 145703]	42%
145704 (eG*e[5mC]*eT*eG*eG*d[5mC]*dT*d[5mC]*d[5mC]*dA*d[5mC]*dA*dA*dA*d[5mC]*e[5mC]*eA*e[5mC]*eT*eT; antisense) [compound 145704]	54%
145705 (e[5mC]*eT*eT*eG*eG*dT*dG*d[5mC]*dG*dG*dA*dT*dA*dT*dT*eT*e[5mC]*eG*eA*eA; antisense) [compound 145705]	49%
145707 (eT*eG*eG*eA*eT*dA*d[5mC]*dT*d[5mC]*dG*dG*d[5mC]*d[5mC]*d[5mC]*dA*eT*e[5mC]*eT*eT*eG; antisense) [compound 145707]	56%
145708 (eG*eG*eA*e[5mC]*eT*d[5mC]*dG*dA*dT*dT*d[5mC]*dA*d[5mC]*dT*d[5mC]*eT*e[5mC]*e[5mC]*e[5mC]*eT; antisense) [compound 145708]	48%
145709 (eG*eG*eG*eA*eT*dG*d[5mC]*dT*d[5mC]*d[5mC]*dA*dT*dA*dG*d[5mC]*eG*eA*eG*eG*eA; antisense) [compound 145709]	14%

Substance	% Inhib of mouse glucose-6-phosphatase translocase mRNA levels
145710 (e[5mC]*e[5mC]*eT*eG*e[5mC]*d[5mC]*dA*dG*dT*dA*dA*dG*dG*d[5mC]*dT*eG*e[5mC]*eA*eG*eT; antisense) [compound 145710]	13%
145711 (eG*eA*eG*eA*eG*dA*d[5mC]*dA*dG*dT*dG*dG*dA*dG*dA*e[5mC]*eA*e[5mC]*eA*eG; antisense) [compound 145711]	33%
145712 (eT*eG*eG*eA*eG*dG*dT*dT*d[5mC]*dA*dG*dA*dG*dA*dG*eA*e[5mC]*eA*eG*eT; antisense) [compound 145712]	42%
145713 (eG*eT*eA*eA*e[5mC]*dT*dT*dG*d[5mC]*dA*dG*d[5mC]*dA*d[5mC]*d[5mC]*eA*eT*eG*eG*eA; antisense) [compound 145713]	63%
145714 (eG*e[5mC]*e[5mC]*eA*e[5mC]*dT*dG*dG*dT*dA*dA*d[5mC]*dT*dT*dG*e[5mC]*eA*eG*e[5mC]*eA; antisense) [compound 145714]	66%
145715 (eA*eG*eG*eA*eG*dT*dT*dG*d[5mC]*d[5mC]*dT*dG*dT*d[5mC]*dT*eG*e[5mC]*e[5mC]*eA*eG; antisense) [compound 145715]	50%
145716 (e[5mC]*e[5mC]*e[5mC]*eT*eG*dA*dA*dT*dT*d[5mC]*dA*dG*dG*dA*dG*eT*eT*eG*e[5mC]*e[5mC]; antisense) [compound 145716]	52%
145717 (eT*eA*e[5mC]*eT*e[5mC]*dA*d[5mC]*dT*dA*dG*dG*dA*dG*dA*dT*e[5mC]*eA*eG*eG*eA; antisense) [compound 145717]	52%
145718 (e[5mC]*eA*eA*eT*eT*dT*dT*dG*d[5mC]*d[5mC]*d[5mC]*d[5mC]*d[5mC]*dT*dG*e[5mC]*e[5mC]*eA*eA*eG; antisense) [compound 145718]	26%
145719 (eG*eA*eG*eT*eG*dG*dT*dG*dG*dA*d[5mC]*dT*d[5mC]*d[5mC]*dT*e[5mC]*eT*e[5mC]*e[5mC]*eT; antisense) [compound 145719]	47%
145720 (TCAAATCTAGCTTTATTCGA; 2'-MOE wings and deoxy gap, wing lengths and linkages not given here) [compound 145720]	11%
145721 (eG*eG*e[5mC]*eT*eG*dT*dG*dG*dG*dT*d[5mC]*d[5mC]*d[5mC]*d[5mC]*dG*eA*eA*e[5mC]*eG*eA; antisense) [compound 145721]	0%
145722 (e[5mC]*eA*eG*eT*eG*dT*d[5mC]*d[5mC]*d[5mC]*dT*dG*d[5mC]*dG*dA*d[5mC]*eA*eT*e[5mC]*eA*eG; antisense) [compound 145722]	8%
145723 (eG*e[5mC]*e[5mC]*eG*e[5mC]*d[5mC]*dT*dT*d[5mC]*dT*dG*dG*dA*d[5mC]*dA*eA*eT*e[5mC]*eA*eT; antisense) [compound 145723]	0%
145724 (eG*eG*e[5mC]*eT*e[5mC]*dT*dT*dT*dA*dT*dA*dG*d[5mC]*d[5mC]*dG*e[5mC]*e[5mC]*eT*eT*e[5mC]; antisense) [compound 145724]	0%
